Values of other authors in US20130202637A1, “Dietary Supplements Including Ellagitannins and Ellagic Acid” (priority 2012, published 2013).

Structure (SMILES): O=c1oc2c(O)c(O)cc3c(=O)oc4c(O)c(O)cc1c4c23 [ellagic acid]
- G-Arrest began (breast cancer): 72 h
- G-Arrest began (cervical cancer): 72 h
